Data published in US8614242B2, “1-(heterocyclic carbonyl)-2-substituted pyrrolidines” (Bayer Intellectual Property GmbH, priority 2010, dated 2013).

Experiments:
[1] = system: Fusarium nivale (var. majus); experiment: In vivo preventive test on Fusarium nivale (wheat); details: 500 ppm of active ingredient, evaluated 5 days after inoculation
Description: After the spray coating has been dried, the plants are slightly injured by using a sandblast and afterwards they are sprayed with a conidia suspension of Fusarium nivale (var. majus).

Septoria tritici = experiment: In vivo preventive test on Septoria tritici (wheat); details: 500 ppm of active ingredient, evaluated 21 days after inoculation
Description: After the spray coating has been dried, the plants are sprayed with a spore suspension of Septoria tritici.

[2] = logP by HPLC on reversed-phase column (EEC Directive 79/831 Annex V.A8); format: physicochemical; details: HPLC on reversed-phase column (C 18), 40° C., 0.1% aqueous formic acid and acetonitrile, linear gradient 10% to 90% acetonitrile
Method: In table 1, the logP values were determined in accordance with EEC Directive 79/831 Annex V.A8 by HPLC (High Performance Liquid Chromatography) on a reversed-phase column (C 18), using the method described below: Temperature: 40° C.; Mobile phases: 0.1% aqueous formic acid and acetonitrile; linear gradient from 10% acetonitrile to 90% acetonitrile. Calibration was carried out using unbranched alkan-2-ones (comprising 3 to 16 carbon atoms) with known logP values (determination of the logP values by the retention times using linear interpolation between two successive alkanones). lambda-max-values were determined using UV-spectra from 200 nm to 400 nm and the peak values of the chromatographic signals.

Pyrenophora teres = experiment: In vivo preventive test on Pyrenophora teres (barley); details: 500 ppm of active ingredient, evaluated 7-9 days after inoculation
Method: The plants remain for 48 hours in an incubation cabinet at 22° C. and a relative atmospheric humidity of 100%.

[3] = system: Blumeria graminis f.sp. hordei; experiment: In vivo preventive test on Blumeria graminis (barley); details: 500 ppm of active ingredient, evaluated 7 days after inoculation
Description: After the spray coating has been dried, the plants are dusted with spores of Blumeria graminis f.sp. hordei.

Sphaerotheca fuliginea = experiment: In vivo preventive test on Sphaerotheca fuliginea (cucumber); details: 500 ppm of active ingredient, evaluated 7 days after inoculation
Leptosphaeria nodorum = experiment: In vivo preventive test on Leptosphaeria nodorum (wheat); details: evaluated 8 days after inoculation
Description: After the spray coating has been dried, the plants are sprayed with a spore suspension of Leptosphaeria nodorum.

Alternaria solani = experiment: In vivo preventive test on Alternaria solani (tomato); details: evaluated 7 days after inoculation
Method: The plants remain for one day in an incubation cabinet at approximately 22° C. and a relative atmospheric humidity of 100%. Then the plants are placed in an incubation cabinet at approximately 20° C. and a relative atmospheric humidity of 96%.

Puccinia triticina = experiment: In vivo preventive test on Puccinia triticina (wheat); details: 500 ppm of active ingredient, evaluated 8 days after inoculation
Method: In Vivo Preventive Test on Puccinia Triticina (Wheat)
Solvent: 49 parts by weight of N,N-dimethylacetamide
Emulsifier: 1 part by weight of alkylaryl polyglycol ether
After the spray coating has been dried, the plants are sprayed with a spore suspension of Puccinia triticina.
The test is evaluated 8 days after the inoculation.

[4] = 100 ppm of active ingredient, listed as 1.110
[5] = 100 ppm of active ingredient, listed as 1.110 from WO-2009/153191

`Cn1nc(C(F)F)c(C(=O)N2CCCC2Cc2c(Cl)cccc2Cl)c1F` (racemic) [Example 76] showed an Efficacy [1] of 100%, an Efficacy (Septoria tritici) of 83% and a logP [2] of 3.31. The Efficacy (Pyrenophora teres) was 100%, the Efficacy [3] was 100% and the Efficacy (Sphaerotheca fuliginea) was 95%.
For `Cn1cc(C(=O)N2CCC[C@H]2COc2c(Cl)cc(Cl)cc2Cl)c(C(F)F)n1` [Example 1.006 from WO-2009/153191, [3-(difluoromethyl)-1-methyl-1H-pyrazol-4-yl]{(S)-2-[(2,4,6-trichlorophenoxy)methyl]pyrrolidin-1-yl}methanone, reference compound], the Efficacy (Leptosphaeria nodorum; 250 ppm of active ingredient, listed as 1.006) was “less than 50%”, the Efficacy (Leptosphaeria nodorum; 250 ppm of active ingredient, listed as 1.006 from WO-2009/153191) was 43% and the Efficacy (Leptosphaeria nodorum; 500 ppm of active ingredient, listed as 1.006) was “at least 70%”. The Efficacy (Leptosphaeria nodorum; 500 ppm of active ingredient, listed as 1.006 from WO-2009/153191) was 71%.
With `Cn1cc(C(=O)N2CCCC2Cc2c(Cl)cccc2Cl)c(C(F)F)n1` (centres unmarked) [Example 1.110 from WO-2009/153191, [2-(2,6-dichlorobenzyl)pyrrolidin-1-yl][3-(difluoromethyl)-1-methyl-1H-pyrazol-4-yl]methanone, reference compound] the Efficacy (Alternaria solani; [4]) was “less than 30%”, the Efficacy (Alternaria solani; [5]) was 30% and the Efficacy (Alternaria solani; 500 ppm of active ingredient) was 95%. The Efficacy (Leptosphaeria nodorum; [4]) was “no protection”, the Efficacy (Leptosphaeria nodorum; [5]) was 0% and the Efficacy (Leptosphaeria nodorum; 500 ppm of active ingredient) was 44%.
`Cn1nc(C(F)F)c(C(=O)N2CCCC2c2cccc(C(F)(F)F)c2)c1Cl` (centres unmarked) [Example 16] gave an Efficacy (Alternaria solani; 500 ppm of active ingredient) of 100%, a logP [2] of 3.21 and an Efficacy (Pyrenophora teres) of 100%. The Efficacy (Sphaerotheca fuliginea) was 86%.
`Cn1nc(C(F)F)c(C(=S)N2CCCC2c2cccc(C(F)(F)F)c2)c1F` (centres unmarked) [Example 18] showed an Efficacy (Alternaria solani; 500 ppm of active ingredient) of 90%, a logP [2] of 3.59 and an Efficacy (Pyrenophora teres) of 100%. For the same compound, the Efficacy (Sphaerotheca fuliginea) was 100%.
`Cn1nc(C(F)F)c(C(=O)N2CCCC2c2ccc(C(F)(F)F)cc2)c1F` (centres unmarked) [Example 21] showed an Efficacy (Alternaria solani; 500 ppm of active ingredient) of 90%, a logP [2] of 3.13 and an Efficacy (Pyrenophora teres) of 95%. For the same compound, the Efficacy (Sphaerotheca fuliginea) was 81%.
In the case of `Cn1nc(C(F)F)c(C(=O)N2CCCC2c2ccc(Cl)cc2Cl)c1F` (centres unmarked) [Example 22], the Efficacy (Alternaria solani; 500 ppm of active ingredient) was 100%, the logP [2] was 3.44 and the Efficacy (Pyrenophora teres) was 95%. It also gave an Efficacy (Sphaerotheca fuliginea) of 91%.
`Cn1nc(C(F)F)c(C(=S)N2CCCC2c2ccc(Cl)cc2Cl)c1F` (centres unmarked) [Example 24] gave an Efficacy (Alternaria solani; 500 ppm of active ingredient) of 90%, a logP [2] of 4.09 and an Efficacy (Pyrenophora teres) of 100%. The Efficacy (Sphaerotheca fuliginea) was 95%.
With `Cn1nc(C(F)F)c(C(=O)N2CCCC2c2ccc(Cl)c(Cl)c2)c1F` (centres unmarked) [Example 26] the Efficacy (Alternaria solani; 500 ppm of active ingredient) was 95%, the logP [2] was 3.23 and the Efficacy (Pyrenophora teres) was 100%. For the same compound, the Efficacy (Sphaerotheca fuliginea) was 95%.
`Cn1nc(C(F)F)c(C(=O)N2CCCC2c2cc(Cl)cc(Cl)c2)c1Cl` (centres unmarked) [Example 27] gave an Efficacy (Alternaria solani; 500 ppm of active ingredient) of 95%, a logP [2] of 3.50 and an Efficacy (Pyrenophora teres) of 95%. The Efficacy (Sphaerotheca fuliginea) was 70%.
Compound `Cn1nc(C(F)F)c(C(=O)N2CCCC2c2cc(Cl)cc(Cl)c2)c1F` (centres unmarked) [Example 28] has an Efficacy (Alternaria solani; 500 ppm of active ingredient) of 95%, a logP [2] of 3.35 and an Efficacy (Pyrenophora teres) of 100%. For the same compound, the Efficacy (Sphaerotheca fuliginea) was 100%.
`Cn1nc(C(F)F)c(C(=O)N2CCCC2c2ccccc2Br)c1F` (centres unmarked) [Example 32] showed an Efficacy (Alternaria solani; 500 ppm of active ingredient) of 95%, a logP [2] of 2.98 and an Efficacy (Pyrenophora teres) of 100%. The Efficacy (Sphaerotheca fuliginea) was 95%.
`Cn1nc(C(F)F)c(C(=O)N2CCCC2c2cccc(Br)c2)c1F` (centres unmarked) [Example 34] gave an Efficacy (Alternaria solani; 500 ppm of active ingredient) of 95%, a logP [2] of 2.92 and an Efficacy (Pyrenophora teres) of 100%. It also gave an Efficacy (Sphaerotheca fuliginea) of 95%.
`Cn1nc(C(F)F)c(C(=O)N2CCCC2c2cc(C(F)(F)F)cc(C(F)(F)F)c2)c1F` (centres unmarked) [Example 39] gave an Efficacy (Alternaria solani; 500 ppm of active ingredient) of 95%, a logP [2] of 3.63 and an Efficacy (Pyrenophora teres) of 100%. It also gave an Efficacy (Sphaerotheca fuliginea) of 100%.
`Cn1nc(C(F)F)c(C(=O)N2CCCC2Cc2ccc(F)cc2)c1F` (centres unmarked) [Example 59] showed an Efficacy [1] of 100%, an Efficacy (Septoria tritici) of 90% and a logP [2] of 2.90. The Efficacy (Pyrenophora teres) was 100%, the Efficacy [3] was 100% and the Efficacy (Sphaerotheca fuliginea) was 93%. The Efficacy (Puccinia triticina) was 88% and the Efficacy (Leptosphaeria nodorum; 500 ppm of active ingredient) was 93%.
